Results published in patent US6403614B1, “Benzothiophenes” (Eli Lilly and Company, priority 1997, dated 2002).

Columns and labels:
Assay type in all cases: in vivo, Sprague Dawley rats
ovariectomized rats [1] = experiment: Four Day Ovariectomized Rat Model: wet uterine weight; details: OVX rats, orally administered at 0.1 mg/kg/day, four days, versus untreated ovariectomized animals
Source text: (§1) Estrogenicity: Four Day Ovariectomized Rat Model
(§2) Seventy-five day old female Sprague Dawley rats (weight range of 225 g-275 g) were obtained from Charles River Laboratories (Portage, Mich.). The animals were either bilaterally ovariectomized (OVX) or exposed to a Sham surgical procedure at Charles River Laboratories, and then shipped after one week. Upon arrival, these rats were housed in metal hanging cases in groups of three or four animals per cage, and had ad libitum access to food (Teklad diet, TD 89222, 0.5% calcium, 0.4% phosphorous; Madison, Wis.) and water. Room temperature was maintained at 22.2° C.±1.7° C. with a minimum relative humidity of 40%. The photoperiod in the room was twelve hours light and twelve hours dark. Comparative data were obtained between untreated ovariectomized rats, ovariectomized rats treated with 17α-ethynylestradiol (EE2), and ovariectomized rats treated with representative compounds of the present invention.
After a one-week acclimation period (two weeks post-OVX), daily dosing with test compound and 17α-ethynylestradiol was initiated. The test compounds or 17α-ethynylestradiol (Sigma Chemical Co., St. Louis, Mo.) were given orally, unless otherwise stated, as a suspension in 20% cyclodextrin (CDX). […] The animals were then sacrificed by asphyxiation with CO2, the uterus was removed through a midline incision, and a wet uterine weight was determined.

ovariectomized rats [2] = experiment: Four Day Ovariectomized Rat Model: Serum Cholesterol Analysis; details: OVX rats, orally administered at 0.1 mg/kg/day, four days
Source text: as §1
as §2, with “Comparative data were obtained between untreated ovariectomized rats, ovariectomized rats treated with 17α-ethynylestradiol (EE2), and ovariectomized rats treated with representative compounds of the present invention.” left out
(§3) After a one-week acclimation period (two weeks post-OVX), daily dosing with test compound and 17α-ethynylestradiol was initiated. […] The animals were then sacrificed by asphyxiation with CO2, the uterus was removed through a midline incision, and a wet uterine weight was determined.
The blood samples, collected as described above, were allowed to clot at room temperature for two hours, and serum was obtained following centrifugation for ten minutes at 3000 rpm. Serum cholesterol was determined using a high-performance cholesterol assay (Boehringer Mannheim Diagnostics, Indianapolis, Ind.). […] Cholesterol concentration was then calculated against a standard curve.

ovariectomized rats [3] = experiment: Four Day Ovariectomized Rat Model: Uterine Eosinophil Peroxidase (EPO) Assay; details: OVX rats, oral daily for four days
Source text: as §1
as §2, with “Comparative data were obtained between untreated ovariectomized rats, ovariectomized rats treated with 17α-ethynylestradiol (EE2), and ovariectomized rats treated with representative compounds of the present invention.” left out
as §3
Uteri were kept at 4° C. until time of enzymatic analysis. […] Upon addition of 0.01% hydrogen peroxide and […] o-phenylenediamine (final concentrations) in Tris buffer, the increase in absorbance was monitored for one minute at 450 nm. […] The maximal velocity of a fifteen second interval was determined over the initial, linear portion of the reaction curve.

ovariectomized rats [4] = experiment: Bone Sparing: Five Week Ovariectomized Rat Model, femur X-ray Bone Assay; details: OVX rats, oral gavage daily for 35 days, dose of 0.01 mg/kg
Source text: Seventy-five day old female Sprague Dawley rats (weight range of 275 g-350 g) were obtained from Charles River Laboratories (Portage, Mich.). The animals were either bilaterally ovariectomized (OVX) or exposed to a Sham surgical procedure at Charles River Laboratories, and then shipped the day following surgery. Upon arrival, these rats were housed in metal hanging cases in groups of three or four animals per cage, and had ad libitum access to food (Teklad diet, TD 89222, 0.5% calcium, 0.4% phosphorous; Madison, Wis.) and water. Room temperature was maintained at 22.2° C.±1.7° C. with a minimum relative humidity of 40%. The photoperiod in the room was twelve hours light and twelve hours dark. Test compound preparation was the same as that described in the Estrogenicty assay above. After a one day acclimation period (two days post-OVX), dosing with test compounds was initiated. Oral gavages 20% CDX, representative compound of the invention (0.01 to 10 mg/kg), or 17α-ethynylestradiol (100 μg/kg) were delivered daily for 35 consecutive days. On the evening following the final dose, the animals were fasted. The next morning the animals were aneshetized with a mixture of Ketaset® and Rompun® (67 and 6.7 mg/kg respectively). […] Quantitation was achieved by measuring the total number of pixels in a standard region of interest proximal to the growth plate, over a gray scale range of zero to 60.

SMILES	uterine weight (ovariectomized rats [1])	serum cholesterol (ovariectomized rats [2])	eosinophil infiltration (uterine EPO) (ovariectomized rats [3])	protection of the femur from bone loss (X-ray evaluation) (ovariectomized rats [4])
C#C[C@]1(O)CC[C@H]2[C@@H]3CCc4cc(O)ccc4[C@H]3CC[C@@]21C [EE2, 17α-ethynylestradiol]	substantially greater than the uterine weight of untreated ovariectomized test animals	caused a decrease in serum cholesterol	substantial, expected increase in eosinophil infiltration	–
CCOCOc1ccc(-c2sc3cc(OCOCC)ccc3c2C(=O)c2ccc(OCCN3CCCCC3)cc2)cc1 [Example 3, 2-(4-[Ethoxymethoxy]phenyl)-3-(4-[(2-Piperidin-1-yl)ethoxy]benzoyl)-6-Ethoxymethoxybenzo[b]thiophene]	–	–	–	9.1%
